The record followed here is patent US20260226071A1, “2, 4-DIANILINOPYRIMIDINE-BASED AURORA-A KINASE SELECTIVE DEGRADATION INDUCING COMPOUNDS” (UPPTHERA, INC., priority 2023, published 2026).

The target in one assay is T1, Aurora kinase A (AURKA) (Homo sapiens, UniProt O14965).
T1 construct: endogenous in cells; host or cells: HeLa LgBit (AURKA-HiBit KI), CRISPR/Cas9 knock-in at the endogenous AURKA locus
T1 sequence (O14965 1-403): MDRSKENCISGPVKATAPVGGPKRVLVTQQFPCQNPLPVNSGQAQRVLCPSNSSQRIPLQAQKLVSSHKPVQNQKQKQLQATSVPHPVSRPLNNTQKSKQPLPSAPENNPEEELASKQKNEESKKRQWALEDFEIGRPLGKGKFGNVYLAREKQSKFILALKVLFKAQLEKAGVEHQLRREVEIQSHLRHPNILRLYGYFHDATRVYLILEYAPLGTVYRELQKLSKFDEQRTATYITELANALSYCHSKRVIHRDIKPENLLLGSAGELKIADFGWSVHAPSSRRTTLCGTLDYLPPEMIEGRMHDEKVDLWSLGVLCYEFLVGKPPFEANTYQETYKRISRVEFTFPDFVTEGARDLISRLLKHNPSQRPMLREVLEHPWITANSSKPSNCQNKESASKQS
The assay is described as follows: Luciferase assay for AURKA in HeLa LgBit (AURKA-HiBit KI) cell line. Format: cell-based. Conditions: HeLa LgBit (AURKA-HiBit KI) cells, measured after 12 hours. Summed up: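 HeLa cells stably expressing LgBit, with HiBit knocked in at the C-terminus of endogenous AURKA; 3×10^4 cells seeded, 18 h, then Endurazine substrate 2 h. Compounds tested at 10 nM or 100 nM; luminescence read at 470-480 nm after 12 h as real-time read-out.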
A general note: The HiBiT peptide binds its large partner to form an active luciferase.

In a further assay the test system is NCI-H446 cell line. The assay is described as follows: Cell viability assay for NCI-H446 cell line. Format: cell-based. Conditions: Homo sapiens, NCI-H446, 120 h; H446 cells, 5 days culture, EZ-Cytox; read-out: IC50 value (Level). The method in brief: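 H446 cells seeded 24 h before treatment with compound in 3-fold dilutions, 1000 to 0.15 nM, then cultured 5 days at 37 °C, 5% CO2 in RPMI 1640/10% FBS. Viability read with EZ-Cytox (4 h) as absorbance at 450 nm.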

For orientation: IC50 means the concentration that gives 50% inhibition.

As for `CN(CC1CCN(c2ccc(C3CCC(=O)NC3=O)cc2F)CC1)[C@H]1C[C@H](NC(=O)c2ccc(Nc3ncc(F)c(Nc4ccc(C(=O)Nc5ccccc5Cl)cc4)n3)cc2)C1` (stereo partly drawn) [Compound 76, N-(2-chlorophenyl)-4-((2-((4-(((1r,3r)-3-(((1-(4-(2,6-dioxopiperidin-3-yl)-2-fluorophenyl)piperidin-4-yl)methyl)(methyl)amino)cyclobutyl)carbamoyl)phenyl)amino)-5-fluoropyrimidin-4-yl)amino)benzamide], the “luminescence value (Level)” value on Aurora kinase A (AURKA) (10 nM compound) is reported as “B (B is 0.3 to 0.5)”; on Aurora kinase A (AURKA) (100 nM compound) it was “A (A is <0.2)”. In addition, the 50% inhibitory concentration (IC50) in the assay on NCI-H446 cell line was in the range of 50 to 100 nM.

For the molecule `C[C@@H]1CN(CCC2CCN(NC(=O)c3ccc(Nc4ncc(F)c(Nc5ccc(C(=O)Nc6ccccc6Cl)cc5)n4)cc3)CC2)CCN1c1ccc(C2CCC(=O)NC2=O)cc1` (stereo partly drawn) [Compound 116, N-(2-chlorophenyl)-4-((2-((4-((4-(2-((3R)-4-(4-(2,6-dioxopiperidin-3-yl)phenyl)-3-methylpiperazin-1-yl)ethyl)piperidin-1-yl)carbamoyl)phenyl)amino)-5-fluoropyrimidin-4-yl)amino)benzamide], the entries for the “luminescence value (Level)” value on Aurora kinase A (AURKA) (10 nM compound) and on Aurora kinase A (AURKA) (100 nM compound) were “A (A is <0.3)” and “A (A is <0.2)”, respectively. Also, the IC50 in the assay with NCI-H446 cell line is less than 50 nM.

Regarding `O=C1CCC(c2ccc(N3CCN(CCC4CCN(NC(=O)c5ccc(Nc6ncc(F)c(Nc7ccccc7)n6)cc5)CC4)CC3)cc2)C(=O)N1` (stereo not drawn) [Compound 58, N-(4-(2-(4-(4-(2,6-dioxopiperidin-3-yl)phenyl)piperazin-1-yl)ethyl)piperidin-1-yl)-4-((5-fluoro-4-(phenylamino)pyrimidin-2-yl)amino)benzamide], the “luminescence value (Level)” value on Aurora kinase A (AURKA) (10 nM compound) was “A (A is <0.3)”; on Aurora kinase A (AURKA) (100 nM compound), “A (A is <0.2)”. In addition, the IC50 with NCI-H446 cell line was less than 50 nM.

For `O=C1CCC(c2ccc(N3CCN(CCCN4CCC(NC(=O)c5ccc(Nc6ncc(F)c(Nc7ccc(C(=O)Nc8ccccc8Cl)cc7)n6)cc5)CC4)CC3)cc2)C(=O)N1` (stereo not drawn) [Compound 71, N-(2-chlorophenyl)-4-((2-((4-((1-(3-(4-(4-(2,6-dioxopiperidin-3-yl)phenyl)piperazin-1-yl)propyl)piperidin-4-yl)carbamoyl)phenyl)amino)-5-fluoropyrimidin-4-yl)amino)benzamide], the “luminescence value (Level)” value was “A (A is <0.3)” at Aurora kinase A (AURKA) (10 nM compound) and “A (A is <0.2)” at Aurora kinase A (AURKA) (100 nM compound). Moreover, the IC50 with NCI-H446 cell line fell in the range of 100 to 150 nM.

Take `O=C1CCC(c2ccc(N3CCN(CCC4CCN(C(=O)Nc5ccc(Nc6ncc(F)c(Nc7ccc(C(=O)Nc8ccccc8Cl)cc7)n6)cc5)CC4)CC3)cc2)C(=O)N1` (stereo not drawn) [Compound 53, N-(4-((4-((4-((2-chlorophenyl)carbamoyl)phenyl)amino)-5-fluoropyrimidin-2-yl)amino)phenyl)-4-(2-(4-(4-(2,6-dioxopiperidin-3-yl)phenyl)piperazin-1-yl)ethyl)piperidine-1-carboxamide]: the results for the “luminescence value (Level)” value on Aurora kinase A (AURKA) (10 nM compound) and at Aurora kinase A (AURKA) (100 nM compound) were “B (B is 0.3 to 0.5)” and “A (A is <0.2)”, respectively. Also, the concentration for half-maximal inhibition (IC50) in the assay with NCI-H446 cell line was less than 50 nM.

With `CN(CC1CCN(c2ccc(NC3CCC(=O)NC3=O)cc2)CC1)C[C@H]1CC[C@H](NC(=O)c2ccc(Nc3ncc(F)c(Nc4ccc(C(=O)Nc5ccccc5Cl)cc4)n3)cc2)CC1` (stereo partly drawn) [Compound 38, N-(2-chlorophenyl)-4-[[2-[4-[[4-[[[1-[4-[(2,6-dioxo-3-piperidyl)amino]phenyl]-4-piperidyl]methyl-methyl-amino]methyl]cyclohexyl]carbamoyl]anilino]-5-fluoro-pyrimidin-4-yl]amino]benzamide], the “luminescence value (Level)” value is recorded as “B (B is 0.3 to 0.5)” at Aurora kinase A (AURKA) (10 nM compound) and “B (B is 0.2 to 0.4)” on Aurora kinase A (AURKA) (100 nM compound). For the same molecule, the IC50 in the assay with NCI-H446 cell line is greater than 200 nM.

As for `O=C1CC[C@@H](Nc2ccc(N3CCN(CCC4CCN(NC(=O)c5ccc(Nc6ncc(F)c(Nc7ccc(C(=O)Nc8ccccc8Cl)cc7)n6)cc5)CC4)CC3)cc2F)C(=O)N1` [Compound 111, (R)—N-(2-chlorophenyl)-4-((2-((4-((4-(2-(4-(4-((2,6-dioxopiperidin-3-yl)amino)-3-fluorophenyl)piperazin-1-yl)ethyl)piperidin-1-yl)carbamoyl)phenyl)amino)-5-fluoropyrimidin-4-yl)amino)benzamide], the “luminescence value (Level)” value at Aurora kinase A (AURKA) (10 nM compound) is recorded as “A (A is <0.3)”; at Aurora kinase A (AURKA) (100 nM compound), “A (A is <0.2)”. Further, in the assay with NCI-H446 cell line, the IC50 is less than 50 nM.

As to `O=C1CCC(c2ccc(N3CCC(N4CCC5(CC4)CC(NC(=O)c4ccc(Nc6ncc(F)c(Nc7ccc(C(=O)Nc8ccccc8Cl)cc7)n6)cc4)C5)CC3)c(F)c2)C(=O)N1` (stereo not drawn) [Compound 21, N-(2-chlorophenyl)-4-((2-((4-((7-(1-(4-(2,6-dioxopiperidin-3-yl)-2-fluorophenyl)piperidin-4-yl)-7-azaspiro[3.5]nonan-2-yl)carbamoyl)phenyl)amino)-5-fluoropyrimidin-4-yl)amino)benzamide], the “luminescence value (Level)” value at Aurora kinase A (AURKA) (10 nM compound) is “B (B is 0.3 to 0.5)”; at Aurora kinase A (AURKA) (100 nM compound), “A (A is <0.2)”. Besides, the IC50 with NCI-H446 cell line is less than 50 nM.

For `O=C1CCC(c2ccc(N3CCN(CCC4CCN(NC(=O)c5ccc(Nc6ncc(F)c(Nc7ccc(C(=O)Nc8ccccc8Cl)cc7)n6)cn5)CC4)CC3)cc2)C(=O)N1` (stereo not drawn) [Compound 83, 5-[[4-[4-[(2-chlorophenyl)carbamoyl]anilino]-5-fluoro-pyrimidin-2-yl]amino]-N-[4-[2-[4-[4-(2,6-dioxo-3-piperidyl)phenyl]piperazin-1-yl]ethyl]-1-piperidyl]pyridine-2-carboxamide], the “luminescence value (Level)” value at Aurora kinase A (AURKA) (10 nM compound) is reported as “B (B is 0.3 to 0.5)”; on Aurora kinase A (AURKA) (100 nM compound), “A (A is <0.2)”. Moreover, in the assay on NCI-H446 cell line, the IC50 was greater than 200 nM.

With `O=C1CCC(c2ccc(N3CCN(CCC4CCN(NC(=O)c5ccc(Nc6ncc(F)c(Nc7ccc(C(=O)Nc8ccccc8Cl)cc7)n6)cc5)CC4)CC3)nc2)C(=O)N1` (stereo not drawn) [Compound 56, N-(2-chlorophenyl)-4-[[2-[4-[[4-[2-[4-[5-(2,6-dioxo-3-piperidyl)-2-pyridyl]piperazin-1-yl]ethyl]-1-piperidyl]carbamoyl]anilino]-5-fluoro-pyrimidin-4-yl]amino]benzamide], the figures for the “luminescence value (Level)” value at Aurora kinase A (AURKA) (10 nM compound) and on Aurora kinase A (AURKA) (100 nM compound) were “A (A is <0.3)” and “A (A is <0.2)”, respectively. The IC50 in the assay with NCI-H446 cell line was less than 50 nM.

Regarding `CN(c1ccc(N2CCC(CN3CCN(C(=O)Cc4ccc(Nc5ncc(F)c(Nc6ccc(C(=O)Nc7ccccc7Cl)cc6)n5)cc4)CC3)CC2)cc1)C1CCC(=O)NC1=O` (stereo not drawn) [Compound 44, N-(2-chlorophenyl)-4-((2-((4-(2-(4-((1-(4-((2,6-dioxopiperidin-3-yl)(methyl)amino)phenyl)piperidin-4-yl)methyl)piperazin-1-yl)-2-oxoethyl)phenyl)amino)-5-fluoropyrimidin-4-yl)amino)benzamide], the “luminescence value (Level)” value at Aurora kinase A (AURKA) (10 nM compound) is recorded as “B (B is 0.3 to 0.5)”; on Aurora kinase A (AURKA) (100 nM compound), “A (A is <0.2)”. In addition, in the assay with NCI-H446 cell line, the concentration for half-maximal inhibition (IC50) lay in the range of 100 to 150 nM.

In the case of `O=C1CCC(c2ccc(N3CCN(CCC4CCN(NC(=O)c5ccc(Nc6ncc(F)c(Nc7ccc(C(=O)Nc8ccccc8Cl)cn7)n6)cc5)CC4)CC3)cc2)C(=O)N1` (stereo not drawn) [Compound 98, N-(2-chlorophenyl)-6-((2-((4-((4-(2-(4-(4-(2,6-dioxopiperidin-3-yl)phenyl)piperazin-1-yl)ethyl)piperidin-1-yl)carbamoyl)phenyl)amino)-5-fluoropyrimidin-4-yl)amino) nicotinamide], the “luminescence value (Level)” value is listed as “A (A is <0.3)” at Aurora kinase A (AURKA) (10 nM compound) and “A (A is <0.2)” at Aurora kinase A (AURKA) (100 nM compound). Also, in the assay on NCI-H446 cell line, the IC50 was in the range of 100 to 150 nM.

With `O=C1CCC(c2ccc(N3CC4(CCN(CC5CCN(NC(=O)c6ccc(Nc7ncc(F)c(Nc8ccc(C(=O)Nc9ccccc9Cl)cc8)n7)cc6)CC5)CC4)C3)c(F)c2)C(=O)N1` (stereo not drawn) [Compound 78, N-(2-chlorophenyl)-4-[[2-[4-[[4-[[2-[4-(2,6-dioxo-3-piperidyl)-2-fluoro-phenyl]-2,7-diazaspiro[3.5]nonan-7-yl]methyl]-1-piperidyl]carbamoyl]anilino]-5-fluoro-pyrimidin-4-yl]amino]benzamide], the “luminescence value (Level)” value on Aurora kinase A (AURKA) (10 nM compound) is “B (B is 0.3 to 0.5)”; on Aurora kinase A (AURKA) (100 nM compound), “A (A is <0.2)”. Further, the IC50 with NCI-H446 cell line is 50 to 100 nM.

Take `O=C1CCC(c2ccc(N3CCN(CCC4CCN(NC(=O)c5ccc(Nc6ncc(F)c(Oc7ccc(C(=O)Nc8ccccc8Cl)cc7)n6)cc5)CC4)CC3)cc2)C(=O)N1` (stereo not drawn) [Compound 101, N-(2-chlorophenyl)-4-((2-((4-((4-(2-(4-(4-(2,6-dioxopiperidin-3-yl)phenyl)piperazin-1-yl)ethyl)piperidin-1-yl)carbamoyl)phenyl)amino)-5-fluoropyrimidin-4-yl)oxy) benzamide]: the entries for the “luminescence value (Level)” value on Aurora kinase A (AURKA) (10 nM compound) and on Aurora kinase A (AURKA) (100 nM compound) were “B (B is 0.3 to 0.5)” and “A (A is <0.2)”, respectively. Also, the IC50 in the assay on NCI-H446 cell line is greater than 200 nM.
